Laboratory results from patent US11129807B2, “Methods of treating schizophrenia” (Sunovion Pharmaceuticals Inc., priority 2017, dated 2021).

Assays:
[1] = system: Pre-pulse Inhibition (PPI) in Mice; assay: Pre-pulse inhibition (PPI) of startle in mice;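 further: plus grades count prepulse intensities with significant PPI increase at P below 0.05 and minus means no change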; type: in vivo; conditions: 30 min prior to PPI test, male C57Bl/6J mice, vs. vehicle
Description: (§1) Anti-psychotic like activity of the compounds was evaluated in mice using the PCP hyperactivity and Pre-Pulse Inhibition (PPI) models of schizophrenia.
(§2) Methods: Animals: Male C57Bl/6J mice from Jackson Laboratories (Bar Harbor, Me.) were used. Upon receipt, mice were assigned unique identification numbers (tail marked) and were group housed with 4 mice per cage in OptiMICE ventilated cages. All animals remained housed in groups of four during the remainder of the study. All mice were acclimated to the colony room for at least two weeks prior to testing. During the period of acclimation, mice were examined on a regular basis, handled, and weighed to assure adequate health and suitability. Animals were maintained on a 12/12 light/dark cycle. The room temperature was maintained between 20 and 23° C. with a relative humidity maintained between 30% and 70%. Chow and water were provided ad libitum for the duration of the study. In each test, animals were randomly assigned across treatment groups.
Prepulse Inhibition of Startle: The acoustic startle is an unconditioned reflex response to an external auditory stimulus. Prepulse inhibition of startle (PPI) refers to the reduction in the startle response caused by the presentation of a low-intensity auditory stimulus prior to the startle stimulus. The PPI paradigm is used for the study of schizophrenia and antipsychotic action due to the similarities between the results from human and rodent studies. […] Various psychotomimetic drugs such as PCP can disrupt PPI. In mice, antipsychotic drugs such as clozapine can reverse the disruption of PPI induced by PCP.
Mice were placed in the PPI chambers (Med Associates) for a 5 min session of white noise (70 dB) habituation. After the habituation period the test session was initiated. The session started with a habituation block of 6 presentations of the startle stimulus alone, followed by 10 PPI blocks, each of which consisted of 6 different types of trials. Trial types were: ‘null’ (no stimuli), ‘startle’ (120 dB), ‘startle plus prepulse’ (4, 8 and 12 dB over background noise, i.e., 74, 78 or 82 dB) and ‘prepulse’ (82 dB). Trial types were presented in a random order within each block. Each trial started with a 50 ms stimulus-free period during which baseline movements were recorded. This was followed by a subsequent 20 ms period during which the prepulse stimulus was presented and responses to the prepulse measured. After a further 100 ms period, the startle stimulus was presented for 40 ms and responses recorded for 100 ms from startle onset. Responses were sampled every ms. The inter-trial interval was variable with an average of 15 s (range from 10 to 20 s). In ‘startle’ trials the basic auditory startle response was measured. The basic startle response was calculated as the mean startle response of all ‘startle’ trials (i.e., excluding the first habituation block). In ‘startle plus prepulse’ trials the degree of inhibition of the normal startle was calculated and expressed as a percentage of the basic startle response.
Mice were treated with vehicle, haloperidol (1 mg/kg; i.p) or test compound 30 min prior to PPI test. The PPI enclosures were cleaned following each test.

[2] = system: PCP-Induced Hyperactivity Responses in Mice; assay: PCP-induced hyperactivity (open field) in mice;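 further: plus means significant inhibition of PCP hyperactivity at P below 0.05 and minus means none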; type: in vivo; conditions: male C57Bl/6J mice, vs. vehicle + PCP
Description: as §1, §2
The analysis was configured to divide the open field into a center and periphery zone. Distance traveled was measured from horizontal beam breaks as the mouse moved whereas rearing activity was measured from vertical beam breaks.
Mice were injected with vehicle, test compound, or clozapine (1 mg/kg; i.p) and placed in the OF chambers for 30 min measurement of baseline activity. Mice were then injected with either water or PCP (5 mg/kg; i.p) and placed back in the OF chambers for a 60-minute session. At the end of each OF test session the OF chambers were thoroughly cleaned.

[3] = 10 mg/kg Compound + PCP (5 mg/kg; i.p)
[4] = 30 mg/kg Compound + PCP (5 mg/kg; i.p)
[5] = 100 mg/kg Compound + PCP (5 mg/kg; i.p)
[6] = 0.3 mg/kg Compound + PCP (5 mg/kg; i.p)
[7] = 1 mg/kg Compound + PCP (5 mg/kg; i.p)
[8] = 3 mg/kg Compound + PCP (5 mg/kg; i.p)

Compound	Effect on Pre-pulse Inhibition (PPI) ([1]; 10 mg/kg)	Effect on Pre-pulse Inhibition (PPI) ([1]; 30 mg/kg)	Effect on Pre-pulse Inhibition (PPI) ([1]; 100 mg/kg)	Total Distance Traveled (cm) [2, 3]	Total Distance Traveled (cm) [2, 4]	Total Distance Traveled (cm) [2, 5]	Total Distance Traveled (cm) [2, 6]	Total Distance Traveled (cm) [2, 7]	Total Distance Traveled (cm) [2, 8]	Effect on Pre-pulse Inhibition (PPI) ([1]; 3 mg/kg)
NCC1OCCc2sccc21 (stereo not drawn) [Compound 1]	−	+++	+++	+	+	−				
NC[C@@H]1OCCc2sccc21 [Compound 2]	−	−	+++	+	+	−				
NC[C@H]1OCCc2sccc21 [Compound 3]	+++	+++	−	−	−	−				
CNCC1OCCc2sccc21 (stereo not drawn) [Compound 4]	+++	−	+++	+	+	+	+	+	+	
CNCC1OCCc2sc(C)cc21 (stereo not drawn) [Compound 5]	−	+++	+++	+	+	+				
CCc1cc2c(s1)CCOC2CNC (stereo not drawn) [Compound 10]	+++	+++	+++	+	+	+				
CCNCC1OCCc2sccc21 (stereo not drawn) [Compound 13]	−	−	+++							
CNC[C@@H]1OCCc2sccc21 [Compound 27]	−	−	−	+	+	+	−	−	−	
CNC[C@H]1OCCc2sccc21 [Compound 28]	−	+++	+++	+	+	+	+	+	+	
CNC[C@@H]1OCCc2sc(C)cc21 [Compound 57]	−	−	++	+	+	+				
CNC[C@H]1OCCc2sc(C)cc21 [Compound 58]	+++	+	+++	+	+	+				
CCc1cc2c(s1)CCO[C@H]2CNC [Compound 75]	−	−	−	+	−	+				
CCc1cc2c(s1)CCO[C@@H]2CNC [Compound 76]	−	−	−	−	−	+				
CNCC1OCCc2scc(C)c21 (stereo not drawn) [Compound 78]	−	−	−	+	+	+				
c1cc2c(s1)CCO[C@H]2[C@H]1CCCN1 [Compound 102]	−	−		+	+		−	+	+	−
c1cc2c(s1)CCO[C@@H]2[C@@H]1CCCN1 [Compound 119]				+	+	+				
NC[C@@H]1OCCc2ccsc21 [Compound 127]	−	+++		+	−		−	−	+	+++
CNC[C@@H]1OCCc2scc(C)c21 [Compound 130]	−	−		+	+	+	−	−	+	−
CNC[C@H]1OCCc2scc(C)c21 [Compound 131]	−	−					−	+	+	−
CNCC1OCCc2c(C)csc21 (stereo not drawn) [Compound 140]	−	−	−	−	−	+				
[2H]C([2H])([2H])NC[C@H]1OCCc2sccc21 [Compound 158]	−	−	+++	+	+	+		+	+	−
Cc1csc2c1CCO[C@@H]2CN [Compound 170]	+++	+++		−	−		−	−	−	−
CNC[C@@H]1OCCc2c(C)csc21 [Compound 171]	−	−	+++	−	+		−	−	−	−
